{
  "source": "patent US12612416B2",
  "about": "“Modulators of cystic fibrosis transmembrane conductance regulator” (VERTEX PHARMACEUTICALS INCORPORATED, priority 2020, dated 2026)",
  "key": {"[1]": {"conditions": "amide bond, 13-membered ring, HATU/DIEA, 25.0 °C"}, "[2]": {"molecular_target": "T1, CFTR-mediated chloride transport in human intestinal epithelial enteroid cells (Homo sapiens, UniProt P13569)", "T1 sequence (P13569 with tags, fused parts or gaps DEL508-508)": "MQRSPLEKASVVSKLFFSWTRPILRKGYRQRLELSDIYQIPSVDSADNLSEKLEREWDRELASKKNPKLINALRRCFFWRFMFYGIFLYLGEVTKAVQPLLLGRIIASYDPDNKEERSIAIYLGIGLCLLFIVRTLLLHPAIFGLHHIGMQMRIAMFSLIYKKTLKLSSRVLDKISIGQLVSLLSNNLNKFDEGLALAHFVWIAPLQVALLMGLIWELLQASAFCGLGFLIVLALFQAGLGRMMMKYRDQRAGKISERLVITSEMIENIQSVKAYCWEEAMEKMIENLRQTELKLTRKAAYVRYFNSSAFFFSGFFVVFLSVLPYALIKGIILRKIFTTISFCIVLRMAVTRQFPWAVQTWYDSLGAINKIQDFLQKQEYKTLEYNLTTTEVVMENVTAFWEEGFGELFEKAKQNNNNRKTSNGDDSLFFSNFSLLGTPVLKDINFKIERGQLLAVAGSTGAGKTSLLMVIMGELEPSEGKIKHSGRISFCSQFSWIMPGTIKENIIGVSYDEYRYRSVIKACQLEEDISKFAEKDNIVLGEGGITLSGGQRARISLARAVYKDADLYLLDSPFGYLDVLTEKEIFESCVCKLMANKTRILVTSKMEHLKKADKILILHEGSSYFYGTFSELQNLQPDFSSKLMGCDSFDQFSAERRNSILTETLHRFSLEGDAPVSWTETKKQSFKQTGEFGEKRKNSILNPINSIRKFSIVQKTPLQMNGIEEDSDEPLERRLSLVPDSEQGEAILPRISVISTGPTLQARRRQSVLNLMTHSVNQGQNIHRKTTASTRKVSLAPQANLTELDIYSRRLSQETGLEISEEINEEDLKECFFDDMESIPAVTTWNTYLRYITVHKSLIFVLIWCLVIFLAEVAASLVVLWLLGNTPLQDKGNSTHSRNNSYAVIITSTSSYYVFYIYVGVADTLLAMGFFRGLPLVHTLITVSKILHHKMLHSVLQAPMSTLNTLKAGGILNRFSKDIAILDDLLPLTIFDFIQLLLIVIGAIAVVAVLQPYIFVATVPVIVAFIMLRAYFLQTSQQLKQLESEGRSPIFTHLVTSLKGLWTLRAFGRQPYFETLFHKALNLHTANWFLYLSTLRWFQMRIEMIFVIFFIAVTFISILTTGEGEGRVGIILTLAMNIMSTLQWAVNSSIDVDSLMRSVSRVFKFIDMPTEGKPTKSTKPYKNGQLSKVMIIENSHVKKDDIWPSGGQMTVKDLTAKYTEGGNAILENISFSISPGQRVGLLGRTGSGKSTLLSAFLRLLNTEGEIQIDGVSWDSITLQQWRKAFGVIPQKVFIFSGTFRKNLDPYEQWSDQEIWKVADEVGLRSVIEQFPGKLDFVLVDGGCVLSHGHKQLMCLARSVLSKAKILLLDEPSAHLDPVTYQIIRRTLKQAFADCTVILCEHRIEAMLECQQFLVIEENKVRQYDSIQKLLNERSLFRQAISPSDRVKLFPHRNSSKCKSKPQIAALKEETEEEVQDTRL", "assay": "Membrane potential dye, Enteroid Assay B", "assay_type": "cell-based", "procedure": "(§1) Base medium (ADF+++) consisted of Advanced DMEM/Ham's F12, 2 mM Glutamax, 10 mM HEPES, […] penicillin/streptomycin.\n(§2) Intestinal enteroid maintenance medium (IEMM) consisted of ADF+++, 1×B27 supplement, 1×N2 supplement, 1.25 mM N-acetyl cysteine, 10 mM Nicotinamide, 50 ng/mL hEGF, 10 nM Gastrin, 1 μg/mL hR-spondin-1, 100 ng/mL hNoggin, TGF-b type 1 inhibitor A-83-01, 100 μg/mL Primocin, 10 μM P38 MAPK inhibitor SB202190.\n(§3) Bath 1 Buffer consisted of 1 mM MgCl2, 160 mM NaCl, 4.5 mM KCl, 10 mM HEPES, 10 mM Glucose, 2 mM CaCl2).\n(§4) Chloride Free Buffer consisted of 1 mM Magnesium Gluconate, 2 mM Calcium Gluconate, 4.5 mM Potassium Gluconate, 160 mM Sodium Gluconate, 10 mM HEPES, 10 mM Glucose.\n(§5) BathI Dye Solution consisted of Bath 1 Buffer, 0.04% Pluronic F127, 20 μM Methyl Oxonol, 30 μM CaCCinh-A01, 30 μM Chicago Sky Blue.\n(§6) Chloride Free Dye Solution consisted of Chloride Free Buffer, 0.04% Pluronic F127, 20 μM Methyl Oxonol, 30 μM CaCCinh-A01, 30 μM Chicago Sky Blue.\n(§7) Chloride Free Dye Stimulation Solution consisted of Chloride Free Dye Solution, 10 μM forskolin, 100 μM IBMX, and 300 nM Compound III.\n(§8) Human intestinal epithelial enteroid cells were obtained from the Hubrecht Institute for Developmental Biology and Stem Cell Research, Utrecht, The Netherlands and expanded in T-Flasks as previously described (Dekkers J F, Wiegerinck C L, de Jonge H R, Bronsveld I, Janssens H M, de Winter-de Groot K M, Brandsma A M, de Jong N W M, Bijvelds M J C, Scholte B J, Nieuwenhuis E E S, van den Brink S, Clevers H, van der Ent C K, Middendorp S and M Beekman J M. A functional CFTR assay using primary cystic fibrosis intestinal organoids. Nat Med. 2013 July; 19(7):939-45.).\n(§9) Cells were recovered in cell recovery solution, collected by centrifugation at 650 rpm for 5 minutes at 4° C., resuspended in TrypLE and incubated for 5 minutes at 37° C. Cells were then collected by centrifugation at 650 rpm for 5 minutes at 4° C. and resuspended in IEMM containing 10 μM ROCK inhibitor (RI). The cell suspension was passed through a 40 μm cell strainer and resuspended at 1×10^6 cells/mL in IEMM containing 10 μM RI. Cells were seeded at 5000 cells/well into multi-well plates and incubated for overnight at 37° C., 95% humidity and 5% CO2 prior to assay.\n(§10) Enteroid cells were incubated with test compound in IEMM for 18-24 hours at 37° C., 95% humidity, and 5% C02. […] Briefly, cells were washed 5 times in Bath 1 Buffer. Bath 1 Dye Solution was added and the cells were incubated for 25 minutes at room temperature. Following dye incubation, cells were washed 3 times in Chloride Free Dye Solution. Chloride transport was initiated by addition of Chloride Free Dye Stimulation Solution and the fluorescence signal was read for 15 minutes. […] Chloride transport was then expressed as a percentage of the chloride transport following treatment with 1 μM (14S)-8-[3-(2-{Dispiro[2.0.2.1]heptan-7-yl}ethoxy)-1H-pyrazol-1-yl]-12,12-dimethyl-2λ^6-thia-3,9,11,18,23-pentaazatetracyclo[17.3.1.111,14.05,10]tetracosa-1(22),5,7,9,19(23),20-hexaene-2,2,4-trione, 3 μM (R)-1-(2,2-difluorobenzo[d][1,3]dioxol-5-yl)-N-(1-(2,3-dihydroxypropyl)-6-fluoro-2-(1-hydroxy-2-methylpropan-2-yl)-1H-indol-5-yl)cyclopropanecarboxamide and 300 nM acute N-[2,4-bis(1,1-dimethylethyl)-5-hydroxyphenyl]-1,4-dihydro-4-oxoquinoline-3-carboxamide triple combination control (% Activity)."}, "F508del in NIH 3T3 cells": {"molecular_target": "T2, F508del in NIH 3T3 cells (Homo sapiens, UniProt P13569, DEL508-508)", "T2 construct": "expressed in transfected cells", "T2 sequence (P13569 with tags, fused parts or gaps DEL508-508)": "as above", "assay": "3T3 assay: membrane potential optical assay for F508del correction", "assay_type": "cell-based, mouse", "conditions": "F508del NIH 3T3 cells", "from_the_text": "The assay utilizes fluorescent voltage sensing dyes to measure changes in membrane potential using a fluorescent plate reader (e.g., FLIPR III, Molecular Devices, Inc.) as a readout for increase in functional F508del in NIH 3T3 cells. The driving force for the response is the creation of a chloride ion gradient in conjunction with channel activation by a single liquid addition step after the cells have previously been treated with compounds and subsequently loaded with a voltage sensing dye.\nTo identify correctors of F508del, a single-addition HTS assay format was developed. This HTS assay utilizes fluorescent voltage sensing dyes to measure changes in membrane potential on the FLIPR III as a measurement for increase in gating (conductance) of F508del in F508del NIH 3T3 cells. The F508del NIH 3T3 cell cultures were incubated with the corrector compounds at a range of concentrations for 18-24 hours at 37° C., and subsequently loaded with a redistribution dye. The driving force for the response is a Cl^− ion gradient in conjunction with channel activation with forskolin in a single liquid addition step using a fluorescent plate reader such as FLIPR III.\nBath Solution #1: (in mM) NaCl 160, KCl 4.5, CaCl2) 2, MgCl2 1, HEPES 10, pH 7.4 with NaOH.\nChloride-free bath solution: Chloride salts in Bath Solution #1 (above) are substituted with gluconate salts.\nNIH3T3 mouse fibroblasts stably expressing F508del are used for optical measurements of membrane potential. The cells are maintained at 37° C. in 5% CO2 and 90% humidity in Dulbecco's modified Eagle's medium supplemented with 2 mM glutamine, 10% fetal bovine serum, 1×NEAA, b-ME, 1×pen/strep, and 25 mM HEPES in 175 cm^2 culture flasks. For all optical assays, the cells were seeded at ˜20,000/well in 384-well Matrigel-coated plates. For the correction assays, the cells are cultured at 37° C. with and without compounds for 16-24 hours."}, "[3]": {"molecular_target": "T1, CFTR-mediated chloride transport in human intestinal epithelial enteroid cells", "assay": "Membrane potential dye, Enteroid Assay A", "assay_type": "cell-based", "procedure": "as §1, §2, §3, §4, §5, §6, §7, §8, §9\nas §10, with “95% humidity” for “95% humidity,”, “was added,” for “was added”, “with 3” for “with 1”, “μM (S)—N-((6-aminopyridin-2-yl)sulfonyl)-6-(3-fluoro-5-isobutoxyphenyl)-2-(2,2,4-trimethylpyrrolidin-1-yl)nicotinamide,” for “μM (14S)-8-[3-(2-{Dispiro[2.0.2.1]heptan-7-yl}ethoxy)-1H-pyrazol-1-yl]-12,12-dimethyl-2λ^6-thia-3,9,11,18,23-pentaazatetracyclo[17.3.1.111,14.05,10]tetracosa-1(22),5,7,9,19(23),20-hexaene-2,2,4-trione,”"}, "[4]": {"molecular_target": "T3, CFTR-mediated short-circuit current in F508del/MF-HBE cells (Homo sapiens, UniProt P13569, DEL508-508)", "T3 construct": "endogenous in cells; host or cells: primary human bronchial epithelial cells from CF subjects (F508del/MF)", "T3 sequence (P13569 with tags, fused parts or gaps DEL508-508)": "as above", "assay": "HBE2 assay: Ussing chamber assay of CFTR-mediated short-circuit currents", "assay_type": "cell-based", "conditions": "single fixed concentration 3 μM in combination with 44 nM (6R,12R)-17-amino-12-methyl-6,15-bis(trifluoromethyl)-13,19-dioxa-3,4,18-triazatricyclo[12.3.1.12,5]nonadeca-1(18),2,4,14,16-pentaen-6-ol, 20% human serum", "procedure": "Ussing chamber experiments were performed using human bronchial epithelial (HBE) cells derived from CF subjects heterozygous for F508del and a minimal function CFTR mutation (F508del/MF-HBE) and cultured as previously described (Neuberger T, Burton B, Clark H, Van Goor F Methods Mol Biol 2011:741:39-54). After four days the apical media was removed, and the cells were grown at an air liquid interface for >14 days prior to use.\nTo isolate the CFTR-mediated short-circuit (ISC) current, F508del/MF-HBE grown on Costar® Snapwell™ cell culture inserts were mounted in an Ussing chamber and the transepithelial ISC was measured under voltage-clamp recording conditions (Vhold=0 mV) at 37° C. The basolateral solution contained (in mM) 145 NaCl, 0.83K2HPO4, 3.3 KH2PO4, 1.2 MgCl2, 1.2 CaCl2), 10 Glucose, 10 HEPES (pH adjusted to 7.4 with NaOH) and the apical solution contained (in mM) 145 NaGluconate, 1.2 MgCl2, 1.2 CaCl2), 10 glucose, 10 HEPES (pH adjusted to 7.4 with NaOH) and 30 μM amiloride to block the epithelial sodium channel. […] The CFTR-mediated ISC (μA/cm^2) for each condition was determined from the peak forskolin response to the steady-state current following inhibition.\nThe activity of the CFTR corrector compounds on the CFTR-mediated ISC was determined in Ussing chamber studies as described above. […]"}},
  "note": "Where two headings read alike, the source gives them in different places.",
  "data": [
    {"smiles": "COC(=O)CCCN1CCC(C)c2cc(-c3c(C)cccc3C)nc(n2)NS(=O)(=O)c2cccc(c2)C1=O", "note": "(stereo not drawn)", "values": [
      {"measurement": "ring closure, isolated yield", "setting": "[1]; from COC(=O)CCCNCCC(C)c1cc(-c2c(C)cccc2C)nc(NS(=O)(=O)c2cccc(C(=O)O)c2)n1, NMP, 22.1 mM, 15.0 h", "result": 90, "unit": "%"}
    ]},
    {"smiles": "Cc1cccc(C)c1-c1cc2nc(n1)NS(=O)(=O)c1cccc(c1)C(=O)N(C1CC3(CC(NC(=O)OC(C)(C)C)C3)C1)[C@H](CC(C)C)CC2", "note": "(stereo partly drawn)", "values": [
      {"measurement": "ring closure, isolated yield", "setting": "[1]; from Cc1cccc(C)c1-c1cc(CC[C@@H](CC(C)C)NC2CC3(CC(NC(=O)OC(C)(C)C)C3)C2)nc(NS(=O)(=O)c2cccc(C(=O)O)c2)n1, NMP, 27.3 mM, 2.0 h", "result": 88, "unit": "%"}
    ]},
    {"smiles": "Cc1cccc(C)c1-c1cc2nc(n1)NS(=O)(=O)c1cccc(c1)C(=O)N(C1CC3(CCN(C(=O)OC(C)(C)C)CC3)C1)[C@H](CC(C)C)CC2", "values": [
      {"measurement": "ring closure, isolated yield", "setting": "[1]; from Cc1cccc(C)c1-c1cc(CC[C@@H](CC(C)C)NC2CC3(CCN(C(=O)OC(C)(C)C)CC3)C2)nc(NS(=O)(=O)c2cccc(C(=O)O)c2)n1, NMP, 97.4 mM, 2.0 h", "result": 68, "unit": "%"}
    ]},
    {"smiles": "Cc1cccc(C)c1-c1cc2nc(n1)NS(=O)(=O)c1cccc(c1)C(=O)NCCC2c1ccc(C(C)(C)C)cc1", "note": "(stereo not drawn) [Compound 5, 9-(4-tert-Butylphenyl)-6-(2,6-dimethylphenyl)-2,2-dioxo-2 λ6-thia-3,5,12,19-tetrazatricyclo[12.3.1.14,8]nonadeca-1(18),4(19),5,7,14,16-hexaen-13-one]", "values": [
      {"measurement": "ring closure, isolated yield", "setting": "[1]; from Cc1cccc(C)c1-c1cc(C(CCN)c2ccc(C(C)(C)C)cc2)nc(NS(=O)(=O)c2cccc(C(=O)O)c2)n1, DMF, 11.6 mM, 21.0 h", "result": 40, "unit": "%"},
      {"measurement": "Ent. B Max Activity", "setting": "[2]; % of chloride transport of triple combination control: 1 μM (14S)-8-[3-(2-{Dispiro[2.0.2.1]heptan-7-yl}ethoxy)-1H-pyrazol-1-yl]-12,12-dimethyl-...-2,2,4-trione, 3 μM tezacaftor, 300 nM acute ivacaftor", "result": "+++ (+++ is >60%)"},
      {"measurement": "EC50", "setting": "[2]; enteroid cells, 18-24 hours incubation, acute 10 μM forskolin and 300 nM ivacaftor, read-out: Ent. B EC50", "result": "< 1000", "unit": "nM"}
    ]},
    {"smiles": "Cc1cccc(C)c1-c1cc2nc(n1)NS(=O)(=O)c1cccc(c1)C(=O)O[C@H](c1ccc(C(C)(C)C)cn1)[C@@H](CC(C)C)N2C", "note": "[Compound 35]", "values": [
      {"measurement": "EC50", "setting": "F508del in NIH 3T3 cells; compound incubation 18-24 hours at 37° C., forskolin activation", "result": "< 1000", "unit": "nM"},
      {"measurement": "3T3 Max Activity", "setting": "F508del in NIH 3T3 cells; efficacy compared to lumacaftor in combination with acutely added 300 nM Ivacaftor", "result": "+++ (+++ is >60%)"},
      {"measurement": "Ent. A Max Activity", "setting": "[3]; % of chloride transport of triple combination control: 3 μM (S)-N-((6-aminopyridin-2-yl)sulfonyl)-6-(3-fluoro-5-isobutoxyphenyl)-2-(2,2,4-trimethylpyrrolidin-1-yl)nicotinamide, 3 μM tezacaftor, 300 nM acute ivacaftor", "result": "++ (++ is 30-60%)"},
      {"measurement": "EC50", "setting": "[3]; enteroid cells, 18-24 hours incubation, acute 10 μM forskolin and 300 nM ivacaftor, read-out: Ent. A EC50", "result": "1000 to 3000", "unit": "nM"}
    ]},
    {"smiles": "Cc1cccc(C)c1-c1cc2nc(n1)NS(=O)(=O)c1cccc(c1)C(=O)N(C1CC3(CC(NC(=O)OC(C)C)C3)C1)[C@H](CC(C)(C)C)CC2", "note": "(stereo partly drawn) [Compound 69]", "values": [
      {"measurement": "HBE2 Activity at 3 μM", "setting": "[4]", "result": "+++ (+++ is >60%)"}
    ]},
    {"smiles": "Cc1cccc(C)c1-c1cc2nc(n1)NS(=O)(=O)c1cccc(c1)C(=O)N(Cc1cncc(N(C)C3CCC3)n1)[C@H](CC(C)(C)C)CC2", "note": "[Compound 72]", "values": [
      {"measurement": "HBE2 Activity at 3 μM", "setting": "[4]", "result": "+++ (+++ is >60%)"}
    ]}
  ]
}
